Laboratory results taken from patent US20240092846A1, “ENGINEERED CYCLOTIDES WITH POTENT BROAD ANTIMICROBIAL ACTIVITY” (priority 2022, published 2024).
Values after ≈ are worked out from the molar mass of the structure shown. Values joined by “and” are separate entries in the source; they are usually repeats but may differ in a detail not shown here. Equal entries are not always repeated. “Also recorded” adds a separate entry of the source. Where two headings read alike, the source gives them in different places.

Columns and labels:
[1] = system: human HEK293T and A549 epithelial cells
Method: Cytotoxicity Assay. Cellular toxicities against human HEK293T and A549 epithelial cells were evaluated using Resazurin (Alamarblue™, Thermo Fisher Scientific, Waltham, MA). HEK293T cells were grown in minimum essential media (MEM), while A549 cells were grown in Dulbecco's […] (DMEM) supplemented with 10% fetal bovine serum (FBS) and maintained at 37° C. with 5% CO2. For each cell line, 10^4 cells were added to each well in a 96-well polystyrene plate and incubated for 16 h. Peptides were serially diluted two-fold at concentrations ranging from 100-0.2 μM in medium containing 10% FBS in polystyrene 96 well microtiter plates (Corning) for 16 h. After the incubation period, the cells were washed with PBS and treated with 200 μL/well DMEM media supplemented with 10% FBS containing the peptides at the indicated concentration for 22 h at 37° C. in 5% CO2 and then the medium was replaced with fresh growth medium containing resazurin and incubated for another 2 hours. Cell viability was quantified spectrophotometrically and cells incubated in the absence of peptides and containing 2% Triton X-100 (Sigma) served as controls.

[2] = in vitro; conditions: 37° C., LC-MS/MS
Method: This was accomplished by incubating the corresponding peptides in human serum at 37° C. The quantitative analysis of undigested polypeptides was performed using liquid chromatography coupled with tandem mass spectrometry (LC-MS/MS). MCoTI-cyclotides present a very rigid structure,[24] which makes them extremely stable to proteolytic degradation.
Human serum stability. […]. Peptides were dissolved in water at 10 mg/mL concentration. 150 μg of peptides (15 μL) were mixed with 500 μL of human serum and incubated at 37° C. Samples (30 μL) were taken at various time intervals (0-120 h) and serum proteins were precipitated using 180 μL of acetonitrile containing 0.1% TFA. After centrifugation the pellet was dissolved in 8 M GdmCl and the supernatant was lyophilized and re-dissolved in 5% acetonitrile in water containing 0.1% formic acid. Both the supernatant and solubilized pellet fractions were analyzed by HPLC and LC-MS/MS. Each experiment was done in triplicate.

[3] = system: clinical isolates of methicillin-resistant S. aureus (MRSA)
Method: (§1) Broad-spectrum antimicrobial activity was evaluated using the broth microdilution assays against two different pathogens from four different species of bacteria (P. aeruginosa, S. aureus, K. pneumoniae, and E. coli) to determine if the cyclotides retained its potent activity. Broth microdilution assays were utilized to determine the minimum inhibitory concentrations (MICs) of our cyclotides according to the CLSI (formerly NCCLS) guidelines modifications as described below (40). The assay utilized cation-adjusted Mueller-Hinton broth (CAMHB) (Becton, Dickinson and Company, Franklin Lakes, NJ) which was prepared according to the manufacturer's instructions. Cyclotide solutions were prepared as 10× solutions in 0.01% acetic acid. Cyclotide were serially diluted two-fold at concentrations ranging from 25-0.05 μM that contained CAMHB and 0.04% bovine serum albumin (BSA) in polypropylene microtiter plates (Corning, Corning, NY). All bacteria were incubated overnight at 37° C. at 200 rpm in CAMHB and bacterial inoculum was adjusted with additional CAMHB to 0.5 McFarland standard through spectrophotometry at 600 nm. […] Study strains included a total of 20 P. aeruginosa and 20 methicillin resistant S. aureus strains from patients with cystic fibrosis at the Keck Medical Center of the University of Southern California. […] Colistin sulphate (Sigma-Aldrich, St Louis, MO) was used as a reference antibiotic for P. aeruginosa and E. coli, while vancomycin hydrochloride and meropenem trihydrate were used as reference antibiotics for S. aureus and K. pneumoniae.

[4] = system: E. coli; conditions: CAMHB
Method: as §1

[5] = system: clinical isolates of P. aeruginosa
Method: as §1

[6] = Maximum tolerated dose (MTD) toxicology study
Excerpt: Colistin was used as a control antibiotic.[28] […] For this purpose, Applicant employed a P. aeruginosa bacterial peritonitis model.[29] This animal model is a well-established acute infection model and is commonly utilized as a common preclinical screening method for new antibiotics.[30] Peritonitis in Balb/c mice (n=10) was established by intraperitoneal injection of 1.5×10^7 colony forming units (CFU) per mouse of P. aeruginosa (Schroeter) Migula (ATCC 27853).
Maximum tolerated dose (MTD) toxicology Studies. The MTD was determined using two different endpoints: weight loss and clinical scoring. Clinical scores were evaluated through activity, appearance and body condition, similar to previously published literature (42). […] Any dose escalation that leads to moderate toxicity (clinical score of >2) was ceased and the dose prior served as the MTD. Mice were monitored every hour for 4 h after injection on the first day. After 24 h, mice were monitored twice daily for another two days until weight and clinical scores were returned to normal. Mice that met the criteria for moribund included a >20% weight loss and clinical score of >3 and were euthanized.

## CC[C@H](C)[C@@H]1NC(=O)[C@@H]2CSSC[C@@H]3NC(=O)[C@H](C(C)C)NC(=O)CNC(=O)CNC(=O)[C@H](CCCNC(=N)N)NC(=O)[C@H](CCCNC(=N)N)NC(=O)CNC(=O)[C@H](C(C)C)NC(=O)[C@@H]4CSSC[C@H](NC(=O)[C@H](CC(C)C)NC(=O)[C@H](CCCNC(=N)N)NC(=O)CNC(=O)CNC(=O)[C@H](CO)NC(=O)CNC(=O)[C@H](CO)NC(=O)CNC(=O)[C@@H]5CSSC[C@H](NC(=O)[C@H](CC(=O)O)NC(=O)[C@H](CO)NC(=O)[C@H](CC(=O)O)NC(=O)[C@H](CCCNC(=N)N)NC(=O)[C@H](CCCNC(=N)N)NC(=O)[C@H](CSSC[C@H](NC1=O)C(=O)N[C@@H](CCCNC(=N)N)C(=O)NCC(=O)N[C@@H](CC(N)=O)C(=O)NCC(=O)N[C@@H](Cc1ccc(O)cc1)C(=O)N5)NC(=O)[C@H](CCCNC(=N)N)NC(=O)[C@H](CCC(N)=O)NC(=O)[C@H](CC(C)C)NC(=O)[C@H]([C@@H](C)CC)NC(=O)[C@H](CCCCN)NC(=O)[C@@H]1CCCN1C3=O)C(=O)N1CCC[C@H]1C(=O)NCC(=O)N[C@@H](C)C(=O)N2)C(=O)N[C@@H](Cc1ccc(O)cc1)C(=O)N[C@H]1CSSC[C@H](NC(=O)[C@H](Cc2ccccc2)NC(=O)[C@H](CCCNC(=N)N)NC(=O)[C@H](CCCNC(=N)N)NC(=O)[C@H](CCCNC(=N)N)NC1=O)C(=O)N[C@@H](C(C)C)C(=O)N4 [MCo-PG2]
[1]
  cytotoxicity relative to PG-1: about three times less toxic than PG-1; also recorded: about three times less cytotoxic than PG-1
[2]
  t1/2 in human serum: ~60 h
[2]; human, human serum, t1/2 in human serum
  half-life at 0.291 mg/mL: 60 ± 6 h
[3]; MRSA clinical isolates, n=20
  S. aureus MIC50: 6.25 µM and 6.3 µM
  S. aureus MIC90: 12.5 µM
[3]; SA strain 766
  S. aureus (SA) MIC: 6.25 µM
[3]; SA strain 4084-1
  S. aureus (SA) MIC: 12.5 µM
[3]; SA strain 4094
  S. aureus (SA) MIC: 12.5 µM
[3]; SA strain 6151-1
  S. aureus (SA) MIC: 12.5 µM
[3]; SA strain 10337-1
  S. aureus (SA) MIC: 6.25 µM
[3]; SA strain 10630-1
  S. aureus (SA) MIC: 6.25 µM
[3]; SA strain 20021-1
  S. aureus (SA) MIC: 6.25 µM
[3]; SA strain 20457-1
  S. aureus (SA) MIC: 12.5 µM
[3]; SA strain 28283
  S. aureus (SA) MIC: 6.25 µM
[3]; SA strain 28310
  S. aureus (SA) MIC: 6.25 µM
[3]; SA strain 28355
  S. aureus (SA) MIC: 6.25 µM
[3]; SA strain 30138-2
  S. aureus (SA) MIC: 3.125 µM
[3]; SA strain 30493-1
  S. aureus (SA) MIC: 6.25 µM
[3]; SA strain 32120-1
  S. aureus (SA) MIC: 6.25 µM
[3]; SA strain 38878-2
  S. aureus (SA) MIC: 3.125 µM
[3]; SA strain 87066
  S. aureus (SA) MIC: 12.5 µM
[3]; SA strain 87112
  S. aureus (SA) MIC: 12.5 µM
[3]; SA strain 87180
  S. aureus (SA) MIC: 6.25 µM
[3]; SA strain 88,531
  S. aureus (SA) MIC: 12.5 µM
[3]; SA strain 902674
  S. aureus (SA) MIC: 12.5 µM
[4]; E. coli DS377
  MIC: 0.8 µM (≈ 4.4 µg/mL)
[4]; E. coli K12
  MIC: 0.8 µM (≈ 4.4 µg/mL)
[5]; PA strain 95302
  P. aeruginosa (PA) MIC: 1.57 µM
[5]; PA strain 119133
  P. aeruginosa (PA) MIC: 3.125 µM
[5]; PA strain 167482
  P. aeruginosa (PA) MIC: 0.4 µM
[5]; PA strain 200174
  P. aeruginosa (PA) MIC: 0.4 µM
[5]; PA strain 219686
  P. aeruginosa (PA) MIC: 3.125 µM
[5]; PA strain 254831
  P. aeruginosa (PA) MIC: 1.5 µM
[5]; PA strain 262309
  P. aeruginosa (PA) MIC: 1.5 µM
[5]; PA strain 298473
  P. aeruginosa (PA) MIC: 0.78 µM
[5]; PA strain 466035
  P. aeruginosa (PA) MIC: 0.4 µM
[5]; PA strain 486442
  P. aeruginosa (PA) MIC: 0.78 µM
[5]; PA strain 618154
  P. aeruginosa (PA) MIC: 0.78 µM
[5]; PA strain 678449
  P. aeruginosa (PA) MIC: 3.125 µM
[5]; PA strain 774248
  P. aeruginosa (PA) MIC: 12.5 µM
[5]; PA strain 815159
  P. aeruginosa (PA) MIC: 0.78 µM
[5]; PA strain 844265
  P. aeruginosa (PA) MIC: 0.78 µM
[5]; PA strain 857950
  P. aeruginosa (PA) MIC: 6.25 µM
[5]; PA strain 864684
  P. aeruginosa (PA) MIC: 3.125 µM
[5]; PA strain 894496
  P. aeruginosa (PA) MIC: 0.78 µM
[5]; PA strain 894925
  P. aeruginosa (PA) MIC: 3.125 µM
[5]; PA strain 900719
  P. aeruginosa (PA) MIC: 3.125 µM
[6]; Balb/c, mouse, in vivo, ip
  MTD at 3 days: 25 mg/kg
[6]; in vivo toxicity studies
  times less toxic than PG-1 in mice: approximately 4
